Measurements: patent US11596639B2, “Substituted indole Mcl-1 inhibitors” (Vanderbilt University, priority 2016, dated 2023)

Assays:
[1] = tested on: H929 human cancer cell lines; assay: Cellular viability / proliferation (Cell TiterGlo, 72 h); format: cell-based; details: Homo sapiens, NCI-H929, 72 h, read-out: GI50 on cellular proliferation of H929 human cancer cell lines, H929 cells, 72 h, Cell TiterGlo, 10% FBS
How it was run: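 Top dose 50 μM, serially diluted 2-fold, applied one day after seeding (1,000 cells/well, 10% FBS), DMSO below 1%.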

Mcl-1 = Mcl-1 (Homo sapiens (Human), UniProt Q07820); assay: TR-FRET binding assay, FITC-Bak peptide and MBP-tagged Mcl-1; details: read-out: Ki for Inhibition of Mcl-1 by TR-FRET assay
Chain of Mcl-1 (Q07820 172-327): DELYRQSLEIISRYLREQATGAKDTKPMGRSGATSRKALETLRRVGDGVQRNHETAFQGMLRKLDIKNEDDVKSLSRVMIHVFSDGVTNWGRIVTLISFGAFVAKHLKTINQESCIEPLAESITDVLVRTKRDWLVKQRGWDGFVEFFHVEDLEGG
Experimental: Compounds are diluted in DMSO in a 16-point, semilog serial dilution scheme. […] The plate was mixed and incubated for 3 hours at room temperature. […] TR-FRET signal is plotted and IC50 and Ki values are calculated in the same manner as the fluorescence polarization anisotropy based competition assays.

Compound | GI50 [1] | Ki (Mcl-1)
Cc1cc(OCCCc2c3n(c4c(-c5c(C)nn(C)c5C)c(Cl)ccc24)[C@H](C)CN(c2cn(CCN4CCN(C)CC4)c4ccc(-c5ncn(C)n5)cc24)C3=O)cc(C)c1Cl [Example 526, (R)-7-Chloro-10-(3-(4-chloro-3,5-dimethylphenoxy)propyl)-4-methyl-2-(5-(1-methyl-1H-1,2,4-triazol-3-yl)-1-(2-(4-methylpiperazin-1-yl)ethyl)-1H-indol-3-yl)-6-(1,3,5-trimethyl-1H-pyrazol-4-yl)-3,4-dihydropyrazino[1,2-a]indol-1(2H)-one] | < 200 nM | < 0.2 nM
COCCn1cc(N2C[C@@H](C)n3c(c(CCCOc4cc(C)c(Cl)c(C)c4)c4ccc(Cl)c(-c5c(C)nn(C)c5C)c43)C2=O)c2cc(-c3ncn(CC4COC4)n3)ccc21 [Example 581, (R)-7-Chloro-10-(3-(4-chloro-3,5-dimethylphenoxy)propyl)-2-(1-(2-methoxyethyl)-5-(1-(oxetan-3-ylmethyl)-1H-1,2,4-triazol-3-yl)-1H-indol-3-yl)-4-methyl-6-(1,3,5-trimethyl-1H-pyrazol-4-yl)-3,4-dihydropyrazino[1,2-a]indol-1(2H)-one] | 250 nM | 3.7 nM
Cc1cc(OCCCc2c3n(c4c(-c5c(C)nn(C)c5C)c(Cl)ccc24)[C@H](C)CN(c2cc(COCCN4CCOCC4)cc4cc(C(=O)O)n(C)c24)C3=O)cc(C)c1Cl [Example 693, (R)-7-(7-chloro-10-(3-(4-chloro-3,5-dimethylphenoxy)propyl)-4-methyl-1-oxo-6-(1,3,5-trimethyl-1H-pyrazol-4-yl)-3,4-dihydropyrazino[1,2-a]indol-2(1H)-yl)-1-methyl-5-((2-morpholinoethoxy)methyl)-1H-indole-2-carboxylic acid] | 210 nM | < 0.2 nM
Cc1cc(OCCCc2c3n(c4c(-c5c(C)nn(C)c5C)c(Cl)ccc24)[C@H](C)CN(c2cn(C)c4ccc(-c5nn[nH]n5)nc24)C3=O)cc(C)c1Cl [Example 687, (R)-7-chloro-10-(3-(4-chloro-3,5-dimethylphenoxy)propyl)-4-methyl-2-(1-methyl-5-(2H-tetrazol-5-yl)-1H-pyrrolo[3,2-b]pyridin-3-yl)-6-(1,3,5-trimethyl-1H-pyrazol-4-yl)-3,4-dihydropyrazino[1,2-a]indol-1(2H)-one] | 330 nM | < 0.2 nM
Cc1cc(OCCCc2c3n(c4c(-c5c(C)nn(C)c5C)c(Cl)ccc24)[C@H](C)CN(c2cn(Cc4ccccn4)c4ccc(C(=O)O)cc24)C3=O)cc(C)c1Cl [Example 561, (R)-3-(7-chloro-10-(3-(4-chloro-3,5-dimethylphenoxy)propyl)-4-methyl-1-oxo-6-(1,3,5-trimethyl-1H-pyrazol-4-yl)-3,4-dihydropyrazino[1,2-a]indol-2(1H)-yl)-1-(pyridin-2-ylmethyl)-1H-indole-5-carboxylic acid] | 510 nM | < 0.2 nM
COc1ccc(N2C[C@@H](C)n3c(c(CCCOc4cc(C)c(Cl)c(C)c4)c4ccc(Cl)c(-c5c(C)n[nH]c5C)c43)C2=O)c2c1cc(C(=O)O)n2Cc1ccccn1 [Example 724, (R)-7-(7-chloro-10-(3-(4-chloro-3,5-dimethylphenoxy)propyl)-6-(3,5-dimethyl-1H-pyrazol-4-yl)-4-methyl-1-oxo-3,4-dihydropyrazino[1,2-a]indol-2(1H)-yl)-4-methoxy-1-(pyridin-2-ylmethyl)-1H-indole-2-carboxylic acid] | 330 nM | < 0.2 nM
Cc1cc(OCCCc2c3n(c4c(-c5c(C)nn(C)c5C)c(Cl)ccc24)[C@H](C)CN(c2cc(C(=O)N4CCOCC4)cc4cc(C(=O)O)n(C)c24)C3=O)cc(C)c1Cl [Example 591, (R)-7-(7-chloro-10-(3-(4-chloro-3,5-dimethylphenoxy)propyl)-4-methyl-1-oxo-6-(1,3,5-trimethyl-1H-pyrazol-4-yl)-3,4-dihydropyrazino[1,2-a]indol-2(1H)-yl)-1-methyl-5-(morpholine-4-carbonyl)-1H-indole-2-carboxylic acid] | 2800 nM | < 0.2 nM
Cc1cc(OCCCc2c3n(c4c(-c5c(C)nn(C)c5C)c(Cl)ccc24)[C@H](C)CN(c2cn(C)c4ccc(-c5cncnc5)cc24)C3=O)cc(C)c1Cl [Example 653, (R)-7-Chloro-10-(3-(4-chloro-3,5-dimethylphenoxy)propyl)-4-methyl-2-(1-methyl-5-(pyrimidin-5-yl)-1H-indol-3-yl)-6-(1,3,5-trimethyl-1H-pyrazol-4-yl)-3,4-dihydropyrazino[1,2-a]indol-1(2H)-one] | 1900 nM | 15 nM
COc1ccc(N2C[C@@H](C)n3c(c(CCCOc4cc(C)c(Cl)c(C)c4)c4ccc(Cl)c(-c5c(C)nn(C)c5C)c43)C2=O)c2c1cc(C(=O)O)n2Cc1cc(C)ccn1 [Example 582, (R)-7-(7-chloro-10-(3-(4-chloro-3,5-dimethylphenoxy)propyl)-4-methyl-1-oxo-6-(1,3,5-trimethyl-1H-pyrazol-4-yl)-3,4-dihydropyrazino[1,2-a]indol-2(1H)-yl)-4-methoxy-1-((4-methylpyridin-2-yl)methyl)-1H-indole-2-carboxylic acid] | 220 nM | 0.28 nM
Cc1cc(OCCCc2c3n(c4c(-c5c(C)nn(C)c5C)c(Cl)ccc24)[C@H](C)CN(c2cn(C)c4ccc(-c5nc6c(C)cccn6n5)cc24)C3=O)cc(C)c1Cl [Example 698, (R)-7-Chloro-10-(3-(4-chloro-3,5-dimethylphenoxy)propyl)-4-methyl-2-(1-methyl-5-(8-methyl-[1,2,4]triazolo[1,5-a]pyridin-2-yl)-1H-indol-3-yl)-6-(1,3,5-trimethyl-1H-pyrazol-4-yl)-3,4-dihydropyrazino[1,2-a]indol-1(2H)-one] | 620 nM | 1.8 nM
COCCOc1cc(N2C[C@@H](C)n3c(c(CCCOc4cc(C)c(Cl)c(C)c4)c4ccc(Cl)c(-c5c(C)nn(C)c5C)c43)C2=O)c2c(c1)cc(C(=O)O)n2Cc1cccc(C)n1 [Example 540, (R)-7-(7-Chloro-10-(3-(4-chloro-3,5-dimethylphenoxy)propyl)-4-methyl-1-oxo-6-(1,3,5-trimethyl-1H-pyrazol-4-yl)-3,4-dihydropyrazino[1,2-a]indol-2(1H)-yl)-5-(2-methoxyethoxy)-1-((6-methylpyridin-2-yl)methyl)-1H-indole-2-carboxylic acid] | < 200 nM | < 0.2 nM
CC(=O)N1CCN(c2cccc(Cn3c(C(=O)O)cc4cc(C)cc(N5C[C@@H](C)n6c(c(CCCOc7cc(C)c(Cl)c(C)c7)c7ccc(Cl)c(-c8c(C)nn(C)c8C)c76)C5=O)c43)n2)CC1 [Example 528, (R)-1-((6-(4-acetylpiperazin-1-yl)pyridin-2-yl)methyl)-7-(7-chloro-10-(3-(4-chloro-3,5-dimethylphenoxy)propyl)-4-methyl-1-oxo-6-(1,3,5-trimethyl-1H-pyrazol-4-yl)-3,4-dihydropyrazino[1,2-a]indol-2(1H)-yl)-5-methyl-1H-indole-2-carboxylic acid] | 870 nM | < 0.2 nM
COCCOc1cc(N2C[C@@H](C)n3c(c(CCCOc4cc(C)c(Cl)c(C)c4)c4ccc(Cl)c(-c5c(C)n[nH]c5C)c43)C2=O)c2c(c1)cc(C(=O)O)n2C [Example 716, (R)-7-(7-chloro-10-(3-(4-chloro-3,5-dimethylphenoxy)propyl)-6-(3,5-dimethyl-1H-pyrazol-4-yl)-4-methyl-1-oxo-3,4-dihydropyrazino[1,2-a]indol-2(1H)-yl)-5-(2-methoxyethoxy)-1-methyl-1H-indole-2-carboxylic acid] | 550 nM | < 0.2 nM
